Measurements reported in patent publication US9910031B2, “Compositions and methods for modulating c-Rel-dependent cytokine production” (Synta Pharmaceuticals Corporation, priority 2003, dated 2018).

Experiments:
IL-12 p40 mRNA = assay: Northern blot of IL-12 p40 mRNA in IFN-γ/SAC-stimulated human PBMC; type: cell-based; conditions: hPBMC; for IL-12 p40 mRNA accumulation: 6 h after SAC
Description: Northern blot analysis was performed to examine the mRNA levels of IL-12 p35 and p40. Human PBMC and the human monocyte cell line THP-1 cells were stimulated with IFN-γ/SAC in the presence or absence of Compound 1. Human PBMC were isolated by centrifugation using Ficoll-Paque (Pharmacia Biotech, Uppsala, Sweden) and prepared in RPMI medium supplemented with 10% fetal calf serum (FCS), 100 U/ml penicillin, and 100 μg/ml streptomycin, in a 96-well plate with 5×10^5 cells/well. The cells were then primed with IFN-γ (100 U/ml) and followed by 0.01% SAC or 1 μg/ml LPS, in the presence of different concentrations of Compound 2 or other compounds. The test compounds were prepared in DMSO and the final DMSO concentration was adjusted to 0.25% in all cultures, including the compound-free control. Cell-free supernatants were taken 18 h later for the measurement of cytokines. The THP-1 cells were obtained from American Type Culture Collection (Manassas, Va.) and were cultured in RPMI 1640 (ATCC, Manassas, Va.), supplemented with 10% FCS (ATCC, Manassas, Va.), and 1% penicillin/Streptomycin (Gibco-BRL, New York, N.Y.). Total RNA was isolated and subjected to Northern blot analysis using IL-12 p35 and p40 cDNA probes. We first examined the kinetics of mRNA accumulation in cultures of hPBMC and THP-1 cells primed with IFN-γ followed by SAC stimulation in the presence or absence of 1 μM Compound 1.
We conducted a dose-response study of the inhibitory effects of Compound 1 on IL-12 mRNA expression in IFN-γ/SAC-stimulated hPBMC. Because both IL-12 p35 and p40 mRNA levels were maximal at 6 h after the addition of SAC, this time point was selected for the dose-response analysis.

IL-12 p70 = assay: Inhibition of production of IL-12 p70 protein; type: cell-based, human; conditions: Homo sapiens; 1 μM Compound 1; 10 mM ASA; read-out: percent inhibition of production of IL-12 p70 protein
Description: Cells were co-transfected with the vector pCMV (BD Biosciences Clontech) in which the constitutively active CMV promoter directs β-galactosidase expression for the monitoring of transfection efficiency. Luciferase and β-galactosidase activity were determined in cell extracts prepared according to the Luciferase assay system (Promega) and Luminescent n-gal Detection system (BD Biosciences Clontech). Luciferase activity was then normalized using the β-galactosidase value. […] ELISA was performed by the following method. Human IL-12 p70 (heterodimer) was assayed using ELI-PAIR kit from Cell Sciences (Norwood, Mass.), according to the manufacturer's instructions. Human IL-12 p40 was assayed using ELISA kit from Cell Sciences (Norwood, Mass.) according to the manufacturer's instructions.
The extracts obtained from this process were used in gel-shift assays using oligonucleotides containing the NFκB target sequence corresponding to the region −121 to −102 from the transcription initiation site of IL-12 p40 or a mutated NFκB binding site. […] This interaction was specific as it was competed away by an excess of unlabeled probe, but not by a mutated oligonucleotide in which two base-pairs were substituted. […] This is expected since a compound that potently blocks NFkB have a far broader cytokine inhibitory profile than Compound 1/Compound 2.

IL-12 p40 = IL-12 p40 inhibition after Toxoplasma antigen (STAg) versus IFN-γ/SAC stimulus; type: cell-based; conditions: preliminary results
Description: Compound 2 did, in fact, inhibit p70 but not p40 production in human DCs (no inhibition at up to 10 μM Compound 2). […] Therefore, if Compound 2 is acting through c-Rel, we should not observe potent inhibition of IL-12 p40 following STAg stimulation. […] These two results further confirm that the inhibition of IL-12 production by Compound 2 is via the c-Rel pathway.

p52 = assay: Immunoblot of nuclear p52 in THP1 cells; type: cell-based, human; conditions: THP1, IFNg+LPS, 100 nM, 6 h
Description: Rel B and p52 are two members of Rel family, which are preferentially complexed with each other. Like p50 and p65, p52 is found in virtually all cell types, whereas c-Rel and Rel B have only been detected in lymphoid tissues. To determine the effect of Compound 2 on p52 and Rel-B nuclear translocation, THP1 cells were stimulated with IFNg+LPS in either the presence or absence of 100 nM Compound 2, and the distribution of p52 and Rel-B was determined by immunoblotting of nuclear at 6 h post-treatment.
THP-1 cells were suspended in 20 volumes of buffer A containing 10 mM KCl, 10 mM HEPES (pH 7.9), 1 mM MgCl2, 1 mM dithiothreitol (DTT), 0.1% Nonidet p40 (NP-40), and 0.5 mM phenylmethylsulfonyl fluoride (PMSF) and homogenized and centrifuged at 10,000 rpm at 4 C for 5 min. Nuclear pellets were then suspended in buffer C containing 400 mM NaCl, 20 mM HEPES 9 pH 7.9), 15 mM MgCl2, 0.2 mM EDTA, 1 mM DTT, 25% glycerol, 1 mM PMSF, and 10 ug of leupeptin, 20 ug of pepstatin, and 10 ug/ml antipain, incubated for 30 min at 4 C, and centrifuged at 14,000 rpm for 20 min. The supernatants were dialyzed against buffer D containing 100 mM NaCl, 20 mM HEPES (pH 7.9), 20% glycerol, 1 mM PMSF, and 1 mM DTT.
The 10% SDS Polyacrylamide gels (Invitrogen) were transferred to Pure Nitrocellulose membrane (BioRed, Hercules, Calif.). […]

Row | SMILES | expression of the mRNA for the p40 subunit (IL-12 p40 mRNA; 1 μM Compound 1) | IL-12 p40 mRNA accumulation (IL-12 p40 mRNA; 1 nM) | IL-12 p40 mRNA accumulation (IL-12 p40 mRNA; 10 nM) | inhibition at 1 µM (IL-12 p70) [%] | IC50 of p40 inhibition with STAg induction relative to IFN-γ/SAC stimulus (IL-12 p40) | nuclear p52 (FIG. 11) (p52)
1 | C(=NNc1nc(OCCc2ccccn2)nc(N2CCOCC2)n1)c1c[nH]c2ccccc12 [Compound 1, N-(1H-indol-3-ylmethylene)-N′-[4-morpholin-4-yl-6-(2-pyridin-2-yl-ethoxy)-[1,3,5]triazin-2-yl]-hydrazine] | reduced significantly but incompletely | barely inhibited | maximum, though still incomplete inhibition | 97 | – | –
2 | Cc1cccc(C=NNc2cc(N3CCOCC3)nc(OCCc3ccccn3)n2)c1 [Compound 2, N-(3-methyl-benzylidene)-N′-[6-morpholin-4-yl-2-(2-pyridin-2-yl-ethoxy)-pyrimidin-4-yl]-hydrazine] | – | – | – | – | approximately 1000 times | No significant difference
